Reference: the Kinase Knowledgebase extract (Sharma et al. 2016)

target: CDK2 (human) (UniProt P24941); experiment: Enzyme Assay

SMILES	IC50 [µM]
N[C@H]1CC[C@H](Nc2nc3ccnn3c(Nc3ccc(F)c(Cl)c3)c2-c2ccccc2)CC1	< 100
CCOc1ccc(Nc2c(C)c(N[C@H]3CC[C@H](N)CC3)nc3c(CC)cnn23)cc1	< 100
COc1ccc(Nc2c(CCCO)c(N[C@H]3CC[C@H](N)CC3)nc3ccnn23)cc1	< 100
CCc1c(N[C@H]2CC[C@H](N)CC2)nc2ccnn2c1Nc1ccc(OC)c(OC)c1	< 100
Cc1c(N[C@H]2CC[C@H](N)CC2)nc2ccnn2c1Nc1cccc2[nH]ccc12	< 100
CCOc1ccc(Nc2c(C)c(N[C@@H]3CCN(Cc4ccccc4)C3)nc3ccnn23)cc1	< 100
Cc1c(N[C@H]2CC[C@H](N)CC2)nc2ccnn2c1Nc1cccc(OCc2ccccc2)c1	< 100
Cc1c(N[C@H]2CC[C@H](N)CC2)nc2ccnn2c1Nc1ccc(-c2ccccc2C(F)(F)F)cc1	< 100
COc1c(NC2CCCNC2)nc2ccnn2c1Nc1ccc(F)c(Cl)c1 (configuration not stated)	< 100
Cc1c(N[C@H]2CC[C@H](N)CC2)nc2ccnn2c1Nc1ccc(-c2ccc(F)cc2)cc1	< 100
Cc1c(N[C@H]2CC[C@H](N)CC2)nc2ccnn2c1Nc1ccc(OCC2CCCO2)cc1 (some centres not stated)	< 100
Cc1c(N[C@H]2CC[C@H](N)CC2)nc2ccnn2c1Nc1cccc(OCc2cccnc2)c1	< 100
Cc1c(N[C@H]2CC[C@H](N)CC2)nc2ccnn2c1Nc1ccc(OCCN2CCCCC2)cc1	< 100
Cc1c(N[C@H]2CC[C@H](N)CC2)nc2ccnn2c1Nc1ccc(-c2ccc(OC(F)(F)F)cc2)cc1	< 100
Cc1c(N[C@H]2CC[C@H](N)CC2)nc2ccnn2c1Nc1ccc(-n2ccnc2)cc1	< 100
CCOc1cccc(Nc2c(CC)c(N[C@H]3CC[C@H](N)CC3)nc3ccnn23)c1	< 100
Cc1c(N[C@H]2CC[C@H](N)CC2)nc2ccnn2c1Nc1ccccc1Cl	< 100
Cc1c(N[C@H]2CC[C@H](N)CC2)nc2ccnn2c1Nc1ccc(-c2ccsc2C=O)cc1	< 100
Cc1c(N[C@H]2CC[C@H](N)CC2)nc2ccnn2c1Nc1ccc(-c2csc3ccccc23)cc1	< 100
Cc1c(N[C@H]2CC[C@H](N)CC2)nc2ccnn2c1Nc1ccc(-c2cccc(F)c2)cc1	< 100
CCOc1ccc(Nc2c(C)c(N[C@H]3CC[C@H](N)CC3)nc3c(C(=O)O)cnn23)cc1	< 100
Cc1c(N[C@H]2CC[C@H](N)CC2)nc2ccnn2c1Nc1cccc(OCc2cccc(Cl)c2)c1	< 100
CCc1c(N[C@H]2CC[C@H](N)CC2)nc2ccnn2c1Nc1ccc(OC)cc1	< 100
CCc1c(N[C@H]2CC[C@H](N)CC2)nc2ccnn2c1Nc1ccc(N2CCCCC2)cc1	< 100
Fc1ccc(Nc2cc(NC3CCCNC3)nc3c(Br)cnn23)cc1Cl (configuration not stated)	< 100

SMILES	IC50 [µM]
Cc1c(N[C@H]2CC[C@H](N)CC2)nc2ccnn2c1Nc1ccc(O)cc1	< 100
Cc1c(N[C@H]2CC[C@H](N)CC2)nc2ccnn2c1Nc1ccc(-c2cccc(C#N)c2)cc1	< 100
CCOc1ccc(Nc2c(C)c(N[C@H]3CC[C@H](N)CC3)nc3c(C(=O)Nc4cc[nH]n4)cnn23)cc1	< 100
CCc1c(NC2CCCNC2)nc2c(Cl)cnn2c1Nc1ccc(I)cc1 (configuration not stated)	< 100
Cc1c(N[C@H]2CC[C@H](N)CC2)nc2ccnn2c1Nc1ccc(C(=O)NC2CCCC2)cc1	< 100
Cc1c(N[C@H]2CC[C@H](N)CC2)nc2ccnn2c1Nc1ccc(-c2ccc(O)cc2)cc1	< 100
Cc1c(N[C@H]2CC[C@H](N)CC2)nc2ccnn2c1Nc1ccc(OCCc2ccccn2)cc1	< 100
Cc1c(N[C@H]2CC[C@H](N)CC2)nc2ccnn2c1Nc1ccc(-c2ccoc2)cc1	< 100
CCc1c(N[C@H]2CC[C@H](N)CC2)nc2ccnn2c1Nc1ccccc1	< 100
N[C@H]1CC[C@H](Nc2cc(NCc3cccc(Cl)c3)n3ncc(I)c3n2)CC1	< 100
Cc1ccc(Nc2c(C)c(NC3CCCNC3)nc3ccnn23)cc1C (configuration not stated)	< 100
Cc1c(N[C@H]2CC[C@H](N)CC2)nc2ccnn2c1Nc1ccc(-c2ccsc2)cc1	< 100
Cc1c(N[C@H]2CC[C@H](N)CC2)nc2ccnn2c1Nc1cccc(I)c1	< 100
Cc1c(N[C@H]2CC[C@H](N)CC2)nc2ccnn2c1Nc1ccc(-c2ccc(Cl)cc2)cc1	< 100
CCOc1ccc(Nc2c(C)c(N[C@H]3CC[C@H](N)CC3)nc3c(NC)cnn23)cc1	< 100
CCOc1ccc(Nc2c(C)c(NC(CO)C(C)C)nc3ccnn23)cc1 (configuration not stated)	< 100
CCc1c(N[C@H]2CC[C@H](N)CC2)nc2ccnn2c1Nc1cccc(OCc2ccccc2)c1	< 100
COCCOc1ccc(Nc2c(C)c(N[C@H]3CC[C@H](N)CC3)nc3ccnn23)cc1	< 100
Cc1c(N[C@H]2CC[C@H](N)CC2)nc2ccnn2c1Nc1ccc(-c2cccc(N(C)C)c2)cc1	< 100
CCOc1ccc(Nc2c(C)c(N[C@H]3CC[C@H](N)CC3)nc3c(C#N)cnn23)cc1	< 100
Cc1c(N[C@H]2CC[C@H](N)CC2)nc2ccnn2c1Nc1ccc(OCCCl)cc1	< 100
Cc1c(NC2CCCNC2)nc2ccnn2c1Nc1ccccc1F (configuration not stated)	< 100
N#Cc1cnn2c(Nc3ccc(F)c(Cl)c3)cc(N[C@H]3CC[C@H](N)CC3)nc12	< 100
CCc1c(NC2CCCNC2)nc2ccnn2c1Nc1ccc(Oc2ccc(C)cc2)cc1 (configuration not stated)	< 100
CCc1c(N[C@H]2CC[C@H](N)CC2)nc2ccnn2c1Nc1ccc(I)cc1	< 100

SMILES	IC50 [µM]
Cc1c(N[C@H]2CC[C@H](N)CC2)nc2ccnn2c1Nc1ccc(OC2CCCCC2)cc1	< 100
CCOc1ccc(Nc2c(C)c(N[C@H]3CC[C@H](N)CC3)nc3c(CO)cnn23)cc1	< 100
Cc1c(N[C@H]2CC[C@H](N)CC2)nc2ccnn2c1Nc1ccc(OCC2CCCN(C)C2)cc1 (some centres not stated)	< 100
Cc1c(N[C@H]2CC[C@H](N)CC2)nc2ccnn2c1Nc1ccc(-c2ccccc2Cl)cc1	< 100
Cc1c(N[C@H]2CC[C@H](N)CC2)nc2ccnn2c1Nc1ccc(OCc2cccnc2)cc1	< 100
COc1ccc(Nc2c(C)c(N[C@H]3CC[C@H](N)CC3)nc3ccnn23)cc1	< 100
Cc1c(N[C@H]2CC[C@H](N)CC2)nc2ccnn2c1NCC(C)(C)C	< 100
CCOc1ccc(Nc2c(C)c(N[C@H]3CC[C@H](N)CC3)nc3c(C4CCCCC4)cnn23)cc1	< 100
Cc1c(N[C@H]2CC[C@H](N)CC2)nc2ccnn2c1Nc1ccc2ncsc2c1	< 100
N#Cc1cnn2c(Nc3ccccc3Cl)cc(N[C@H]3CC[C@H](N)CC3)nc12	< 100
Cc1cscc1-c1ccc(Nc2c(C)c(N[C@H]3CC[C@H](N)CC3)nc3ccnn23)cc1	< 100
CCc1c(N[C@H]2CC[C@H](N)CC2)nc2ccnn2c1Nc1cccc(C(N)=O)c1	< 100
CCOc1ccc(Nc2c(C(C)C)c(N[C@H]3CC[C@H](N)CC3)nc3ccnn23)cc1	< 100
Cc1c(N[C@H]2CC[C@H](N)CC2)nc2ccnn2c1Nc1ccc(OC2CCNC2)cc1 (some centres not stated)	< 100
CCOc1ccc(Nc2c(C)c(NC3(CO)CCCC3)nc3ccnn23)cc1	< 100
CCOc1ccc(Nc2c(C)c(N[C@H]3CCNC3)nc3ccnn23)cc1	< 100
CCc1c(N[C@H]2CC[C@H](N)CC2)nc2ccnn2c1Nc1cccc(I)c1	< 100
Cc1c(N[C@H]2CC[C@H](N)CC2)nc2ccnn2c1Nc1ccc(OCc2cccc(N)c2)cc1	< 100
CCOc1cccc(Nc2cc(N[C@H]3CC[C@H](N)CC3)nc3c(C#N)cnn23)c1	< 100
CCc1c(N[C@H]2CC[C@H](N)CC2)nc2ccnn2c1Nc1cccc(Br)c1	< 100
Cc1c(N[C@H]2CC[C@H](N)CC2)nc2ccnn2c1Nc1ccc(-c2cccc(O)c2)cc1	< 100
Cc1c(N[C@H]2CC[C@H](N)CC2)nc2ccnn2c1Nc1cccc(O)c1	< 100
COCc1cccc(-c2ccc(Nc3c(C)c(N[C@H]4CC[C@H](N)CC4)nc4ccnn34)cc2)c1	< 100
CCCOc1ccc(Nc2c(C)c(N[C@H]3CC[C@H](N)CC3)nc3ccnn23)cc1	< 100
Cc1c(N[C@H]2CC[C@H](N)CC2)nc2ccnn2c1Nc1ccc(-c2cc3ccccc3o2)cc1	< 100

SMILES	IC50 [µM]
N[C@H]1CC[C@H](Nc2cc(Nc3ccc(F)c(Cl)c3)n3ncc(Br)c3n2)CC1	< 100
Cc1c(N[C@H]2CC[C@H](N)CC2)nc2ccnn2c1Nc1ccc(N(C)C)cc1	< 100
N[C@H]1CC[C@H](Nc2cc(Nc3ccc(F)c(Cl)c3)n3ncc(Cl)c3n2)CC1	< 100
CCc1c(NC2CCCNC2)nc2ccnn2c1Nc1ccc(F)c(Cl)c1 (configuration not stated)	< 100
CCOc1ccc(Nc2c(C)c(NC(C)(C)CO)nc3ccnn23)cc1	< 100
Cc1c(N[C@H]2CC[C@H](N)CC2)nc2ccnn2c1Nc1ccc(OCc2ccccn2)cc1	< 100
CCOc1cccc(Nc2c(C)c(N[C@H]3CC[C@H](N)CC3)nc3ccnn23)c1	< 100
CCc1c(N[C@H]2CC[C@H](N)CC2)nc2ccnn2c1Nc1ccc(F)c(Cl)c1	< 100
CCOc1ccc(Nc2c(C)c(NC3CCCNC3)nc3c(C4CCCCC4)cnn23)cc1 (configuration not stated)	< 100
Cc1c(N[C@H]2CC[C@H](N)CC2)nc2ccnn2c1Nc1ccc(-c2cccc(CO)c2)cc1	< 100
CCc1c(N[C@H]2CC[C@H](N)CC2)nc2ccnn2c1Nc1ccc(OC)c(C(F)(F)F)c1	< 100
CCCCOc1ccc(Nc2c(CC)c(N[C@H]3CC[C@H](N)CC3)nc3ccnn23)cc1	< 100
CCOc1ccc(Nc2cc(N[C@H]3CC[C@H](N)CC3)nc3c(I)cnn23)cc1	< 100
CCc1c(N[C@H]2CC[C@H](N)CC2)nc2ccnn2c1Nc1ccc(OCc2ccccc2)cc1	< 100
CCc1c(N[C@H]2CC[C@H](N)CC2)nc2ccnn2c1Nc1ccc(Oc2ccc(C)cc2)cc1	< 100
CCOc1ccc(Nc2c(C)c(N[C@H]3CC[C@H](N)CC3)nc3c(C(=O)Nc4ccccc4)cnn23)cc1	< 100
Cc1c(N[C@H]2CC[C@H](N)CC2)nc2ccnn2c1Nc1ccc(OCc2ccc(N)cc2)cc1	< 100
Cc1c(N[C@H]2CC[C@H](N)CC2)nc2ccnn2c1Nc1ccc(-c2cccc(Cl)c2)cc1	< 100
N[C@H]1CC[C@H](Nc2cc(Nc3ccccc3Cl)n3ncc(I)c3n2)CC1	< 100
CCc1c(NC2CCNCC2)nc2ccnn2c1Nc1ccc(F)c(Cl)c1	< 100
Cc1c(N[C@H]2CC[C@H](N)CC2)nc2ccnn2c1Nc1ccc2[nH]ncc2c1	< 100
CC(C)c1c(N[C@H]2CC[C@H](N)CC2)nc2ccnn2c1Nc1ccc(F)c(Cl)c1	< 100
